Laboratory results reported in publication PMC10054428, “Turning a Tumor Microenvironment Pitfall into Opportunity: Discovery of Benzamidoxime as PD-L1 Ligand with pH-Dependent Potency” (International Journal of Molecular Sciences, 2023).
Entries after “also recorded” stand apart in the source; their conditions may differ. Like-named read-outs stand apart in the source and are kept apart here.

Legend:
[1] = pKa by potentiometric titration (SiriusT3); type: physicochemical; details: 25 °C, n.3
Description: The first value (pKa1) corresponds to the deprotonated state of the protonated oxime nitrogen atom, entailing the neutral form. The second value (pKa2) is associated to the deprotonation of the oxime hydroxyl group, providing the anionic form of the compound. The presence of electron-withdrawing and/or -donating groups on the benzene ring may affect these values, entailing different stabilities of the cationic, neutral, and anionic species at a given pH. Accordingly, we used a potentiometric titration method to determine the pKa values of VIS310 and its analogues (9, 16–20).
Table 3 reports the experimental pKa values of BMS-202 (5), VIS310 (9), and its analogues (16–20), as obtained using SiriusT3 instrument. […] Therefore, the very high pKa value corresponding to the deprotonation of the oxime hydroxyl group was not experimentally determined in the compounds. Conversely, one or two pKa values were obtained, depending on the presence of a phenol moiety in the benzamidoxime derivatives. […] This is more evident with the insertion of the para hydroxyl group in the compounds VIS1201 (17; pKa1 = 5.35), VIS1202 (18; pKa1 = 5.38), VIS1203 (19; pKa1 = 5.38), and VIS310 (9; pKa1 = 5.65). These latter compounds show also a second value of the acid dissociation constant (pKa2) that corresponds to the deprotonated state of the phenolic group, entailing the anionic form of the compound. […] At pH 7.2, the microspecies adopting a neutral form increases, whereas the cationic form decreases, and a minor part of the microspecies starts adopting an anionic form (Figures S2 and S3, supplementary material).
Physicochemical Property Evaluations. Acidic constants (calcpKa) of compounds were calculated using the calculator plugin Marvin (v20.11, 2021; ChemAxon, Budapest, Hungary).
Each experiment was performed by specifying the sample weight, number of expected pKa values, calculated pKa (calcpKa) values, titration mode, and number of titrations (n.3). In order to measure the pKa of a compound, a sample concentration of 1 mM was prepared and dissolved, adding methanol as the co-solvent. […] Titrations of compounds 16–20 were performed using a ratio of 45%, 40%, 35% methanol. The Yasuda–Shedlovsky method was chosen to extrapolate aqueous pKa values. The R^2 value was used to evaluate the validity of the assay with a co-solvent, and the results were considered acceptable with a R^2 value ≥ 0.9 (Table S3, supplementary material). The accuracy of the pKa assay was also evaluated using the buffer index profile of the analyte. Specifically, the buffering capacity signal of the analyte must be above the intrinsic buffering capacity of water in order to have an accurate potentiometric measurement. Results were analyzed using Sirius T3 software v1.1.3.

[2] = biological target: T1, NT650/PD-L1 (recombinant human PD-L1) (Homo sapiens, UniProt Q9NZQ7); assay: Full-point MST binding assay (Kd) at pH 7.2 and 6.2; details: for BEI (pH 6.2) / BEI: BEI = pKd/MW (kDa); for BEI: pH 7.2; for delta increment of BEI: pH 6.2 versus pH 7.2
T1 construct: purchased Abcam ab167713
T1 sequence (Q9NZQ7 19-290): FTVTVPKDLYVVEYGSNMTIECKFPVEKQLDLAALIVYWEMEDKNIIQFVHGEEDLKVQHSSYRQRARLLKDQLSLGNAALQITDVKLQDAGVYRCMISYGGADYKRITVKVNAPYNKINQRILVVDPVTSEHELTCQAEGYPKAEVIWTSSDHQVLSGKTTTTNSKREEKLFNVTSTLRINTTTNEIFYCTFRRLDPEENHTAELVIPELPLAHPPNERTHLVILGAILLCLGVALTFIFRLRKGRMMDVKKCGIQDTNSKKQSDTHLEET
Procedure: These compounds were next tested in full ligand binding assays against NT650/PD-L1 at pH 7.2, using the scalar concentration of each compound to obtain binding curves and the relative dissociation constants (Kd).
(§1) Biophysical Binding Assays. A lyophilized form of the recombinant human PD-L1 protein was purchased from Abcam (ab167713, Abcam, Cambridge, UK) and reconstituted by adding sterile deionized water to reach a theoretical concentration of 400 µg/mL in PBS (PBS7.2: 50 mM KH2PO4, 0.05% Tween 20, pH 7.2). […] Then, the protein was labeled with a fluorescent dye using the Protein Labelling Kit RED-NHS (NT650, NanoTemper Technologies GmbH, Munich, Germany) and a 1:4 ratio (protein:dye). […] The unbounded fluorophore was removed by a size-exclusion chromatography column using a PBS7.2 storage buffer (pH 7.2). The removal of the unbounded fluorophore was also repeated by conditioning the size-exclusion chromatography column with a phosphate buffer at pH 6.2 (PBS6.2: 50 mM KH2PO4, 0.05% Tween 20, pH 6.2).
(§2) Ligand binding experiments were performed using MST (Monolith NT.115; NanoTemper Technologies GmbH, Munich, Germany). This method is based on the principle of thermophoresis, which is the movement of a biomolecular complex in a temperature gradient depending on the size, charge, and hydration shell that typically change upon ligand/target interaction. The selected 10 highly soluble fragments were purchased from Life Chemicals. […] A vehicle of DMSO 2% was used as negative control.
Each compound was tested starting the 1:1 dilution from a 1 mM concentration in MST buffer (PBS7.2 and PBS6.2) with 2% DMSO. An amount of 10 µL solution of 100 nM NT650/PD-L1 was added to each compound dilution and mixed to halve the final concentration of each component, including 2% DMSO, and reach a reaction volume of 20 µL. After incubating the mixtures for 30 min, samples were loaded into 16 premium-coated capillary tubes for MST analysis. MST signals were recorded for each capillary at medium laser power and 40% LED power, choosing the manual mode with 19/20s hot region.
The Binding Efficiency Index (BEI) was calculated using the following equation [Equation (1)] [43]:BEI = pKd/MW (kDa)(1)
(§3) In all binding experiments and ligand binding displacement assays, raw data were analyzed using MO.Affinity analysis software v2.3 (NanoTemper Technologies GmbH, Munich, Germany). Kd values were extrapolated by compound concentration-dependent changes of the NT650/PD-L1 F-norm signals using MO.Affinity analysis software v2.3.
(§4) MST experiments were carried out using a Monolith NT.115 instrument (NanoTemper Technologies GmbH, Munich, Germany).

[3] = biological target: T1, NT650/PD-L1 (recombinant human PD-L1); assay: Single-point MST binding assay; details: 250 µM compound; for Binder (single-point binder flag): 50 nM NT650/PD-L1, pH 7.2, F-norm outside vehicle ± 3 SD; for Single-point binding result (in words): NT650/PD-L1
Procedure: Putative hit compounds were defined as those molecules inducing a thermophoretic movement of the ligand-bound complex with a fluorescent signal (F-norm) outside the signal value and three-fold standard deviations of the negative control (vehicle, DMSO).
as §1, §2
Single-point binding assays were carried out, recording the MST signal for each capillary at medium laser power and 40% LED power, choosing the manual mode with a 19/20 s hot region. Each experiment was repeated three times employing premium-coated capillaries.

PD-1/PD-L1 complex = biological target: T2, PD-1/PD-L1 complex (Homo sapiens, UniProt Q9NZQ7); assay: Ligand binding displacement assay of PD-1/PD-L1 complex (MST); details: pH 6.2, 50 and 100 μM
T2 construct: purchased Abcam ab167713 (PD-L1)
T2 sequence (Q9NZQ7 19-238 limits assumed, one chain of several): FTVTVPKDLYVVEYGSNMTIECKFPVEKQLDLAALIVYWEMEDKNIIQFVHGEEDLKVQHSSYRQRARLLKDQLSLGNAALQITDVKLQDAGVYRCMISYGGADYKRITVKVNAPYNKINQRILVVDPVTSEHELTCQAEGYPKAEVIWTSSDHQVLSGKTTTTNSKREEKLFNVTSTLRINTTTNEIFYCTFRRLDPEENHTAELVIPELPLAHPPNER
Procedure: This study was carried out with MST.
Ligand binding displacement assays were carried out with MST. […] The reconstitution of the protein was done by adding sterile deionized water to achieve a final concentration of 1 mg/mL in PBS7.2. […] The protein was tested starting the 1:1 dilution from a 26 μM concentration in MST buffer (PBS6.2) with 2% DMSO. […] After incubating the mixtures for 40 min in the dark, samples were loaded into 16 premium-coated capillary tubes for MST analysis. MST signals were recorded for each capillary at medium laser power and 80% LED power, choosing the Default on Time (DoT) mode with 4/5s hot region.
as §3, §4

[4] = design: method as in PMID 25621618; details: UV/vis titration, cited from earlier work
[5] = oxime nitrogen atom, methanol co-solvent, Yasuda–Shedlovsky extrapolation, read-out: pKa1
[6] = phenolic group (9, 17–19), secondary amine group (5), read-out: pKa2
[7] = pH 6.2, n.3, read-out: Kd ± c.v.
[8] = pH 7.2, n.3, read-out: Kd ± c.v.

SMILES	pKa [1, 5]	Kd [2, 7] [µM]	BEI (pH 6.2) [2]	Kd [2, 8] [µM]	Single-point binding result (in words) [3]	other results
Cc1cc(O)ccc1C(=N)NO [VIS1203]	5.38 ± 0.01	54.9 ± 8.2	25.7	> 1000	–	pKa [1, 6]: 9.17 ± 0.02
C[C@]1(O)CC[C@@H]1N1CC2CCCCC2C1 (some centres unmarked) [VIS1079]	–	–	–	–	at the borderline of the definition criterion	Kd ([2]; Kd ± c.v., pH 7.2, n.3): > 250 µM; Binder (single-point binder flag) [3]: x/o
Cc1cc(C(=N)NO)ccc1O [VIS1202]	5.38 ± 0.01	55.4 ± 9.86	25.6	> 1000	–	pKa [1, 6]: 8.97 ± 0.03
Cc1cc(/C(N)=N/O)cc(C)c1O [VIS310]	5.65 ± 0.01	47.8	24.0	164	hit compounds	pKa [1, 6]: 9.32 ± 0.02; BEI [2]: 21.0
N=C(NO)c1ccc(O)cc1 [VIS1201]	5.35 ± 0.12	45.2 ± 10.6	28.6	> 1000	–	Inhibition of PD-1/PD-L1 interaction (in words) (PD-1/PD-L1 complex): dose-dependently inhibits the PD-1/PD-L1 interaction; also recorded: dose-dependently inhibit the formation of the PD-1/PD-L1 complex; pKa [1, 6]: 8.64 ± 0.01; delta increment of BEI [2]: +8.9; BEI [2]: 19.7
O=C(O)c1cccc2c1-c1ccccc1OC2 [VIS877]	–	–	–	> 250	–	–
Cc1ccc(Cn2c(S)nc3c2c(=O)n(C)c(=O)n3C)cc1 [VIS826]	–	–	–	> 250	–	–
[H]/N=C1\NC(=O)[C@H](CC(=O)Nc2cccc3ccccc23)S1 [VIS303]	–	–	–	> 250	hit compounds	–
Nc1[nH]ncc1-c1ccc(F)cc1F [VIS32926]	–	–	–	> 250	at the borderline of the definition criterion	Binder (single-point binder flag) [3]: x/o
O=C(NCc1ccc(F)cc1)c1ccc2nc[nH]c2c1 [VIS545]	–	–	–	> 250	at the borderline of the definition criterion	Binder (single-point binder flag) [3]: x/o
NC(=NO)c1ccccc1 [benzamidoxime]	–	–	–	–	–	pKa2 ([4]; oxime hydroxyl group): 12.36; pKa1 ([4]; protonated oxime nitrogen): 4.85
COC(=O)c1ccc(C)c2c1-c1ccccc1OC2 [VIS879]	–	–	–	> 250	–	–
NCCSc1c[nH]c2ccccc12 [VIS284]	–	–	–	> 250	hit compounds	–
N=C(NO)c1ccccc1-c1ccccc1 [VIS1204]	5.3 ± 0.01	70.8 ± 12.7	19.6	148 ± 71.3	–	delta increment of BEI [2]: +1.5; BEI [2]: 18.1
Cc1cc(C)cc(C(=N)NO)c1 [VIS1200]	5.26 ± 0.01	95.6 ± 20.6	24.5	> 1000	–	–
NCc1n[nH]c(=O)c2ccccc12 [VIS285]	–	–	–	> 250	at the borderline of the definition criterion	Binder (single-point binder flag) [3]: x/o
